Results on twelve compounds are retold here after PubChem BioAssay (NCI).

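96-well plates; 48 h exposure; 5 concentrations. Endpoints by linear interpolation between flanking doses. Not reached: highest tested concentration assigned. At the TGI there is no net growth.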

In the first assay the test system is OVCAR-8 ovarian. In words: DTP human tumour cell line panel, 48 h.
Turning to `Cc1ccc(C(=O)N/N=C(\N=Nc2cccc([N+](=O)[O-])c2)c2ccc(N(CCC#N)CCC#N)cc2C)cc1`, the TGI was over 91.6 µM.
`O=C(O)c1c2c(cc3c1CC(Cc1ccccc1)C3=O)CCC2` (stereo not drawn) showed a total growth inhibition concentration (TGI) of over 100 µM.
Take `OC(CC1CCCCN1)c1ccc2c(c1)oc1ccccc12` (stereo not drawn): the total growth inhibition concentration (TGI) is over 100 µM.
Same read-out and setting: then `O=C1OC(CCCN2CCCCC2)(c2ccccc2)CC12CCCC2` (stereo not drawn), with over 100 µM.
Same read-out and setting: then `COC(=O)[C@@H]1C=C[C@H](OC2OC(COC(C)=O)C(OC(C)=O)C(OC(C)=O)C2OC(C)=O)n2c(=O)n(-c3ccccc3)c(=O)n21` (stereo partly drawn), with 8.03 µM; and `CSc1c(C(=O)Nc2ccccc2)c(N)n(N)c(=O)c1C#N`, with over 100 µM; and `C=CCn1c(N)c(C#N)c(C#N)c1CCC`, with over 100 µM.
Same read-out and setting: then `CC(C)(C)C1CCC(=O)/C(=C/CC2CC(=O)N(c3ccccc3)C(=O)C2)C1` (stereo not drawn), with 39.8 µM.
The compound `COC(=O)C1=C(OC(=O)/C(=C/c2ccccc2)c2ccc(Cl)cc2Cl)C(C(=O)OC)[C@@]2(O)[C@@H](C(=O)OC)[C@H](C)C[C@@H]1[C@@H]2C(=O)OC` (stereo partly drawn) registered a TGI of over 100 µM.
The same measure, in the same setting: then `CS(=O)(=O)C(C#N)c1nc2ccccc2nc1Cl` (stereo not drawn), with over 100 µM; and `Cc1cc(C)nc(NS(=O)(=O)c2ccc(Nc3c4ccccc4nc4ccc(C(=O)Nc5ccc(S(N)(=O)=O)cc5)cc34)cc2)n1`, with over 100 µM.
In turn, `CCOC(=O)/C=C(\C(=O)OCC)n1cc(C)c(=O)n(Cc2cn(CCCCOC(C)=O)nn2)c1=O` showed a TGI of 21.2 µM.

Another assay relates to SF-268 CNS. In words: DTP human tumour cell line panel, 48 h.
As for `Cc1ccc(C(=O)N/N=C(\N=Nc2cccc([N+](=O)[O-])c2)c2ccc(N(CCC#N)CCC#N)cc2C)cc1`, the TGI was over 100 µM.
On to `O=C(O)c1c2c(cc3c1CC(Cc1ccccc1)C3=O)CCC2` (stereo not drawn), for which the concentration for total growth inhibition (TGI) was over 100 µM.
As to `OC(CC1CCCCN1)c1ccc2c(c1)oc1ccccc12` (stereo not drawn), the TGI was over 100 µM.
Regarding `O=C1OC(CCCN2CCCCC2)(c2ccccc2)CC12CCCC2` (stereo not drawn), the concentration for total growth inhibition (TGI) is over 100 µM.
Still for that read-out and setting: with `COC(=O)[C@@H]1C=C[C@H](OC2OC(COC(C)=O)C(OC(C)=O)C(OC(C)=O)C2OC(C)=O)n2c(=O)n(-c3ccccc3)c(=O)n21` (stereo partly drawn) the figure was 8.17 µM; with `CSc1c(C(=O)Nc2ccccc2)c(N)n(N)c(=O)c1C#N`, over 100 µM.
With `C=CCn1c(N)c(C#N)c(C#N)c1CCC`, the concentration for total growth inhibition (TGI) is over 100 µM.
On the same count and under the same terms, then `CC(C)(C)C1CCC(=O)/C(=C/CC2CC(=O)N(c3ccccc3)C(=O)C2)C1` (stereo not drawn), with 47.1 µM.
Same read-out and setting: with `COC(=O)C1=C(OC(=O)/C(=C/c2ccccc2)c2ccc(Cl)cc2Cl)C(C(=O)OC)[C@@]2(O)[C@@H](C(=O)OC)[C@H](C)C[C@@H]1[C@@H]2C(=O)OC` (stereo partly drawn) the figure was over 100 µM; with `CS(=O)(=O)C(C#N)c1nc2ccccc2nc1Cl` (stereo not drawn), over 100 µM; with `Cc1cc(C)nc(NS(=O)(=O)c2ccc(Nc3c4ccccc4nc4ccc(C(=O)Nc5ccc(S(N)(=O)=O)cc5)cc34)cc2)n1`, over 100 µM.
Take `CCOC(=O)/C=C(\C(=O)OCC)n1cc(C)c(=O)n(Cc2cn(CCCCOC(C)=O)nn2)c1=O`: the concentration for total growth inhibition (TGI) is 28.4 µM.

Another assay has as its system SK-MEL-5 melanoma. In words: DTP human tumour cell line panel, 48 h.
The compound `Cc1ccc(C(=O)N/N=C(\N=Nc2cccc([N+](=O)[O-])c2)c2ccc(N(CCC#N)CCC#N)cc2C)cc1` gave a TGI of 28.6 µM.
`O=C(O)c1c2c(cc3c1CC(Cc1ccccc1)C3=O)CCC2` (stereo not drawn) showed a TGI of over 100 µM.
Consider `OC(CC1CCCCN1)c1ccc2c(c1)oc1ccccc12` (stereo not drawn), for which the total growth inhibition concentration (TGI) turned out to be 34.1 µM.
On the same count and under the same terms, with `O=C1OC(CCCN2CCCCC2)(c2ccccc2)CC12CCCC2` (stereo not drawn) the figure was 33.8 µM; with `COC(=O)[C@@H]1C=C[C@H](OC2OC(COC(C)=O)C(OC(C)=O)C(OC(C)=O)C2OC(C)=O)n2c(=O)n(-c3ccccc3)c(=O)n21` (stereo partly drawn), 7 µM; with `CSc1c(C(=O)Nc2ccccc2)c(N)n(N)c(=O)c1C#N`, over 100 µM.
On the same count and under the same terms, with `C=CCn1c(N)c(C#N)c(C#N)c1CCC` the figure was over 100 µM; with `CC(C)(C)C1CCC(=O)/C(=C/CC2CC(=O)N(c3ccccc3)C(=O)C2)C1` (stereo not drawn), 31.7 µM.
On the same count and under the same terms, then `COC(=O)C1=C(OC(=O)/C(=C/c2ccccc2)c2ccc(Cl)cc2Cl)C(C(=O)OC)[C@@]2(O)[C@@H](C(=O)OC)[C@H](C)C[C@@H]1[C@@H]2C(=O)OC` (stereo partly drawn), with over 100 µM; and `CS(=O)(=O)C(C#N)c1nc2ccccc2nc1Cl` (stereo not drawn), with over 27.1 µM; and `Cc1cc(C)nc(NS(=O)(=O)c2ccc(Nc3c4ccccc4nc4ccc(C(=O)Nc5ccc(S(N)(=O)=O)cc5)cc34)cc2)n1`, with over 100 µM.
For `CCOC(=O)/C=C(\C(=O)OCC)n1cc(C)c(=O)n(Cc2cn(CCCCOC(C)=O)nn2)c1=O`, the total growth inhibition concentration (TGI) is over 53.1 µM.

In a further assay the test system is SN12C renal. In words: DTP human tumour cell line panel, 48 h.
`Cc1ccc(C(=O)N/N=C(\N=Nc2cccc([N+](=O)[O-])c2)c2ccc(N(CCC#N)CCC#N)cc2C)cc1` yielded a TGI of over 100 µM.
As to `O=C(O)c1c2c(cc3c1CC(Cc1ccccc1)C3=O)CCC2` (stereo not drawn), the TGI was over 100 µM.
Same read-out and setting: then `OC(CC1CCCCN1)c1ccc2c(c1)oc1ccccc12` (stereo not drawn), with over 100 µM; and `O=C1OC(CCCN2CCCCC2)(c2ccccc2)CC12CCCC2` (stereo not drawn), with over 100 µM; and `COC(=O)[C@@H]1C=C[C@H](OC2OC(COC(C)=O)C(OC(C)=O)C(OC(C)=O)C2OC(C)=O)n2c(=O)n(-c3ccccc3)c(=O)n21` (stereo partly drawn), with 7.95 µM.
On the same count and under the same terms, with `CSc1c(C(=O)Nc2ccccc2)c(N)n(N)c(=O)c1C#N` the figure was over 100 µM; with `C=CCn1c(N)c(C#N)c(C#N)c1CCC`, over 100 µM.
Same read-out and setting: then `CC(C)(C)C1CCC(=O)/C(=C/CC2CC(=O)N(c3ccccc3)C(=O)C2)C1` (stereo not drawn), with 41.3 µM; and `COC(=O)C1=C(OC(=O)/C(=C/c2ccccc2)c2ccc(Cl)cc2Cl)C(C(=O)OC)[C@@]2(O)[C@@H](C(=O)OC)[C@H](C)C[C@@H]1[C@@H]2C(=O)OC` (stereo partly drawn), with over 100 µM.
Consider `CS(=O)(=O)C(C#N)c1nc2ccccc2nc1Cl` (stereo not drawn), for which the TGI is over 100 µM.
Still for that read-out and setting: then `Cc1cc(C)nc(NS(=O)(=O)c2ccc(Nc3c4ccccc4nc4ccc(C(=O)Nc5ccc(S(N)(=O)=O)cc5)cc34)cc2)n1`, with over 100 µM.
Still for that read-out and setting: then `CCOC(=O)/C=C(\C(=O)OCC)n1cc(C)c(=O)n(Cc2cn(CCCCOC(C)=O)nn2)c1=O`, with over 56.7 µM.
